From patent US5262435A, “Cholesterol lowering compounds” (Merck & Co., Inc., priority 1992, dated 1993)

Target: T1, squalene synthetase (Rattus norvegicus, UniProt Q02769)
T1 construct: from tissue; host or cells: rat liver microsomes (lovastatin-fed male Charles River CD rats)
T1 sequence (Q02769 1-416): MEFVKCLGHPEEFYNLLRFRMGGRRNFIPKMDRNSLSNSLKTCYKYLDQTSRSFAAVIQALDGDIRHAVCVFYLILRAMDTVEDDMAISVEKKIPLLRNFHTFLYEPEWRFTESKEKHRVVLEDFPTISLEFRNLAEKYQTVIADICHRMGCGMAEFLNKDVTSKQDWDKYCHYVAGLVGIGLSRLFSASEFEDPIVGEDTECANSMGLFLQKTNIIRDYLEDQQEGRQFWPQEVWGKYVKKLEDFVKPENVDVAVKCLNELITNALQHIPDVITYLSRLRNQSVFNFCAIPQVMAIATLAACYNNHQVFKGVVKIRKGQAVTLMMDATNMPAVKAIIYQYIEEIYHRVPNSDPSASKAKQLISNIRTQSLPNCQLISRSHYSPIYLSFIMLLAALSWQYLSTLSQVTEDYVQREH
Test: Squalene synthetase assay (rat liver microsomes, [4-14C]farnesyl-pyrophosphate)
Type: biochemical
Conditions: rat liver microsomal protein, 30° C., 20 minutes; read-out: IC50 squalene synthetase inhibition
Description: The intrinsic squalene synthetase inhibitory activity of representative compounds of this invention was measured by the standard in vitro protocol described below:
Male, Charles River CD rats (120 to 150 g) were fed a diet containing 0.1% lovastatin for 4 days. The livers from these rats were homogenized in 5 volumes (ml/g) of ice cold 50 Mm HEPES (4-(2-hydroxyethyl)-1-piperazine-ethanesulfonic acid), 5 mM EDTA(ethylenediaminetetraacetic acid) pH 7.5 with a Potter-Elvehjem type tissue grinder. The homogenate was centrifuged twice at 20,000×g for 15 minutes at 4,C, discarding the pellet each time. The supernatant was then centrifuged at 100,000×g for 1 hour at 4° C. The resulting microsomal pellet was resuspended in a volume of the above homogenizing buffer equal to one-fifth the volume of the original homogenate. This microsomal preparation has a protein concentration of about 7 mg/ml. The microsomal suspensions were stored in aliquots at -70° C. Squalene synthetase activity in these aliquots is stable for at least several months. […]
This assay mix was degassed under a vacuum and flushed with N2. […] Ten ml of scintillation fluid was added to the heptane solution and radioactivity was determined by liquid scintillation counting. […]
IC50 values were determined by plotting the log of the concentration of the test compound versus the percentage inhibition. […]

- IC50: 0.95 nM
SMILES: C=C(CC[C@@]12C[C@@H](OC(=O)/C=C/C(C)CC(C)CC)[C@@](C(=O)O)(O1)[C@](O)(C(=O)O)[C@@H](C(=O)O)O2)C(OC(C)=O)C(C)Cc1ccccc1 (stereo partly shown) [Compound A]
